Results on 1 compound are retold here after article PMC9796130, “The First Structure of Human MTHFD2L and Its Implications for the Development of Isoform‐Selective Inhibitors” (Chemmedchem, 2022).

This assay addresses T1, MTHFD2L (Homo sapiens, UniProt Q9H903).
T1 construct: amino acids 50–347, His-tagged
T1 sequence (Q9H903 50-347): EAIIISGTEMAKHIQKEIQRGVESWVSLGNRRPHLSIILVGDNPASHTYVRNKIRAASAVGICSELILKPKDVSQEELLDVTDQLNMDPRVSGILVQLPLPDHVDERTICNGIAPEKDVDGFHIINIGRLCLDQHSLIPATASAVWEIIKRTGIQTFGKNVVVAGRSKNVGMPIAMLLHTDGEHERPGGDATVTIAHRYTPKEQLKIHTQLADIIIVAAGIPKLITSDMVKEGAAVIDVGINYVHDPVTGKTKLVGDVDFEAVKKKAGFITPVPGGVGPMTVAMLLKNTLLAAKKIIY
The assay can be described thus: X-ray co-crystal structure ([…] Å); IC50 on purified enzyme by NAD(P)H-Glo luminescence assay. In kind it is biochemical.

One may read the IC50 as the midpoint of a concentration-inhibition curve. `Nc1nc(N)c(NC(=O)Nc2ccc(C(=O)NC(CCC(=O)O)C(=O)O)cc2)c(O)n1` (stereo not shown) [TH7299] registered an IC50 of 174 nM.
